# Experimental data reported in patent US20240002809A1, “FRACTAL CUES SUPPORT HIERARCHICAL MATURATION OF CELLS VIA CURVATURE-INDUCED PATTERNING” (The Governing Council of the University of Toronto, priority 2022, published 2024).
# How the values were obtained:
# Type in all cases: cell-based
# [1] = test system: human podocyte cell line on HF substrates; assay: Lactate dehydrogenase (LDH) release assay of Mosaic assay cells; conditions: dose of 1 μM, FIG. 13d
# Method: YAP Inhibition Study: HF and NT scaffolds were prepared as described above. Mosaic human podocytes were seeded on top of the scaffolds at a concentration of 50,000 cells/cm^2 (100,000 cells per scaffold). […] Samples were fixed on day 5. Media was collected and lactate dehydrogenase assay (LDH) assay (Cayman) was performed according to manufacturer's protocol to validate cell viability. Mosaic assay imaging and analysis were performed as described above.
# [2] = test system: human podocyte cell line on HF substrates; assay: YAP inhibition study, Mosaic assay fractal dimension of whole cell morphology; conditions: dose of 1 μM, in comparison to the inhibitor-free control, FIG. 13e
# Method: Mosaic Assay: Mosaic Podo/Tert256 human podocytes (a mixture of GFP-labelled cells and non-fluorescent cells at a ratio of 1:11) were cultured and seeded in the same way as regular human podocytes as described above. At the study endpoint, cells were fixed with PFA, stained with rhodamine-wheat germ agglutinin (WGA), and mounted with DAPI-containing mounting media as described above. Samples were imaged via confocal microscopy using a Zeiss LSM 880 Super Resolution Confocal microscope to allow sufficient resolution to visualize interdigitated morphology. Z-stacked images spanning the entire section with visible signals were taken for each sample. The images were first processed using Zeiss's ZenDesk software to increase the contrast of GFP-positive cells' morphology as follows: the FITC channel was adjusted by setting gamma to 2.5 and adjusting the white point to 30. The DAPI channel's white point was adjusted to 80. In Photoshop or Fiji, the magic wand tool was used to select single fluorescent cells, create binary masks, and export binary images of single cells. Single cells were verified by overlaying nuclei with the cell images to ensure each cell only contained one nucleus. Binary images were then outlined in Fiji, and fractal analysis was performed using the FracLac plugin where the standard box-counting algorithm was used, with the background locked to white. […]
# [3] = test system: Mosaic cells cultured on HF scaffolds; assay: Mosaic assay Adriamycin dose test (fractal dimension of cell morphology); conditions: 0.5 and 1 μg/mL ADR; only with Mosaic cells cultured on HF scaffolds (not NT); FIG. 6e, 6f
# Source text: To develop the mosaic assay, populations of fluorescent cells were mixed with optically silent cells and monitored for over 14 days in the mouse cell line, and over 5 days in the human cell line. For long-term live cell labeling, adenovirus transduction of eGFP (Vector Biolabs, #1060) was utilized at an MOI of 1000 in the mouse podocyte cell line, and MOI of 10 in the human podocyte cell line. Cells were transduced one day after seeding and attachment, when cultures were 75% confluent. Virus handling protocols were used, including wearing additional disposable PPE (lab coat, shoe covers, elbow-length and double gloves, and face mask). […]
# The next day, virus was removed and puromycin was applied at 8 μg/mL to select fluorescent cells for 48 hours. […] The mosaic assay was assessed using the Zeiss […] super resolution confocal microscope to allow sufficient resolution to see interdigitating foot processes. […]
# Images of single fluorescent cells from the mosaic assay (used in topography, model virus, Adriamycin, and patient serum experiments) were first processed using Zeiss's ZenDesk software to facilitate delineation of whole single cell morphology as follows: the FITC channel was adjusted by setting gamma to 2.5 and adjusting the white point to 30. […] The sequence was recorded as a macro to facilitate automation and thus performed blindly and equivalently to all sample images. […]
Compound,cell viability (LDH release) [1],Df of podocyte morphology [2],injury response: fractal dimension of cell morphology [3]
Verteporfin,did not show any significant deterioration of cell viability,decreased significantly,
"COc1cccc2c1C(=O)c1c(O)c3c(c(O)c1C2=O)C[C@@](O)(C(=O)CO)C[C@@H]3O[C@H]1C[C@H](N)[C@H](O)[C@H](C)O1 [Adriamycin, doxorubicin]",,,reduced fractal dimension of cell morphology
